These results are taken from patent US8673904B2, “Epoxide inhibitors of cysteine proteases” (The Board of Trustees of the Leland Stanford Junior …, priority 2006, dated 2014).

The assay relates to cathepsin targets. As to the kind of experiment: Cathepsin targets of the compounds (Table 4). Type of assay: biochemical, rat. The following applies: cathepsin target(s) inhibited; General = all cathepsins. How it is done:
Also included in the table for comparison are known compounds JPMOEt and JPMOH (also known as JPM-565). See Meara and Rich, J. Med. Chem. 39:3357-3366, 1996; Bogyo et al, Chem. Biol. 7:27-38, 2000; and Joyce et al., Cancer Cell 5:443-453, 2004. The table also lists cathepsin targets and measured IC50 values for specific compounds. To determine these values, 1 mg/ml of rat liver lysate was incubated with a series of concentrations of the inhibitor for 20 minutes. Then, 1 ul of a radiolabled general cathepsin probe, DCG-04, was added to the solutions and incubated for 1 hour. After fixing and drying the gel, the residual enzyme activity was measured using ImageJ software. The measurements were then transferred to GraphPad Prism 4 to calculate the IC50 values.

For `CC(C)CNC(=O)C1OC1C(=O)N[C@@H](CC(C)C)C(=O)N[C@@H](Cc1ccc(O)cc1)C(N)=O` (stereo partly drawn) [Compound 57], the Target result is given as “Cat B”.

For `CC(C)C[C@H](NC(=O)[C@@H]1O[C@H]1C(=O)NCc1ccccc1)C(=O)N[C@@H](Cc1ccc(O)cc1)C(N)=O` [Compound 42], the Target result is listed as “Cat B”.

On to `Cc1ccc(C[C@H](NC(=O)[C@H]2O[C@@H]2C(=O)NCCc2ccccn2)C(=O)N[C@@H](Cc2ccc(O)cc2)C(N)=O)cc1` [Compound 3], for which the Target entry is listed as “Cat B”.

Turning to `Cc1ccc(C[C@H](NC(=O)[C@H]2OC2C(=O)NCCN2CCCC2)C(=O)N[C@@H](Cc2ccc(O)cc2)C(N)=O)cc1` (stereo partly drawn) [Compound 7], the Target entry is given as “Cat B”.

In the case of `CC(C)CNC(=O)C1OC1C(=O)N[C@@H](CC(C)C)C(=O)N[C@@H](Cc1ccc(O)cc1)C(N)=O` (stereo partly drawn) [Compound 36], the Target result is reported as “Cat B”.

Take `Cc1ccc(C[C@H](NC(=O)[C@H]2O[C@@H]2C(=O)NCc2cccc3ccccc23)C(=O)N[C@@H](Cc2ccc(O)cc2)C(N)=O)cc1` [Compound 8]: the Target result was “Cat B”.

With `CCOC(=O)C1OC1C(=O)N(CC(=O)N[C@@H](Cc1ccc(O)cc1)C(N)=O)CC(C)C` (stereo partly drawn) [Compound 103], the Target result was “Cat B”.

With `CC(C)C[C@H](NC(=O)C1OC1C(=O)N[C@H](C)c1ccccc1)C(=O)N[C@@H](Cc1ccc(O)cc1)C(N)=O` (stereo partly drawn) [Compound 50], the Target result is “Cat B”.

For the compound `Cc1ccc(C[C@H](NC(=O)[C@H]2OC2C(=O)O)C(=O)N[C@@H](Cc2ccc(O)cc2)C(N)=O)cc1` (stereo partly drawn) [Compound 19], the Target entry is “Cat B”.

As to `CCOC(=O)C1O[C@H]1C(=O)N[C@@H](Cc1ccc(C)cc1)C(=O)NCCc1ccccn1` (stereo partly drawn) [Compound 126], the Target result is “General”.

Take `CCC[C@H](NC(=O)[C@H]1O[C@@H]1C(=O)NCCc1ccc(O)cc1)C(=O)NCc1cccc2ccccc12` [Compound 111]: the Target result is listed as “Cat Z”.

As to `CC(C)C[C@H](NC(=O)[C@H]1OC1C(=O)NCCN1CCCC1)C(=O)N[C@@H](Cc1ccc(O)cc1)C(N)=O` (stereo partly drawn) [Compound 26], the Target result is on record as “Cat B”.

Regarding `CC(C)C[C@H](NC(=O)C1OC1C(=O)NCCN1CCOCC1)C(=O)N[C@@H](Cc1ccc(O)cc1)C(N)=O` (stereo partly drawn) [Compound 23], the Target entry is given as “Cat B”.

With `CCC[C@H](NC(=O)[C@@H]1O[C@H]1C(=O)O)C(=O)NCc1cccc2ccccc12` [Compound 115], the Target result is listed as “Cat Z”.

For the compound `CC(C)C[C@H](NC(=O)C1OC1C(=O)NCCc1ccc(-c2ccccc2)cc1)C(=O)N[C@@H](Cc1ccc(O)cc1)C(N)=O` (stereo partly drawn) [Compound 45], the Target result was “Cat B”.

Consider `CC(C)C[C@H](NC(=O)C1OC1C(=O)NCCc1ccccn1)C(=O)N[C@@H](Cc1ccc(O)cc1)C(N)=O` (stereo partly drawn) [Compound 22], for which the Target entry is recorded as “Cat B”.

With `CC(C)C[C@H](NC(=O)[C@@H]1O[C@H]1C(=O)NCc1cccc2ccccc12)C(=O)N[C@@H](Cc1ccc(O)cc1)C(N)=O` [Compound 48], the Target entry is “Cat B”.

For `CC(C)C[C@H](NC(=O)C1OC1C(=O)N[C@@H](C)c1ccccc1)C(=O)N[C@@H](Cc1ccc(O)cc1)C(N)=O` (stereo partly drawn) [Compound 58], the Target entry is reported as “Cat B”.

In the case of `Cc1ccc(C[C@H](NC(=O)[C@H]2O[C@@H]2C(=O)NCCc2ccc(O)cc2)C(=O)N[C@@H](Cc2ccc(O)cc2)C(N)=O)cc1` [Compound 6], the Target result was “Cat B”.

As to `Cc1ccc(C[C@H](NC(=O)C2OC2C(=O)NCCc2ccc(-c3ccccc3)cc2)C(=O)N[C@@H](Cc2ccc(O)cc2)C(N)=O)cc1` (stereo partly drawn) [Compound 5], the Target entry is listed as “Cat B”.

For `CCC[C@H](NC(=O)C1O[C@@H]1C(=O)NCCc1ccc(-c2ccccc2)cc1)C(=O)NCCc1ccccn1` (stereo partly drawn) [Compound 106], the Target result is reported as “Cat B”.

As to `Cc1ccc(C[C@H](NC(=O)C2O[C@@H]2C(=O)NCC(=O)O)C(=O)NCc2cccc3ccccc23)cc1` (stereo partly drawn) [Compound 121], the Target result is listed as “Cat Z”.

Regarding `CC(C)C[C@H](NC(=O)C1OC1C(=O)NN1CCN(C)CC1)C(=O)N[C@@H](Cc1ccc(O)cc1)C(N)=O` (stereo partly drawn) [Compound 30], the Target result is recorded as “Cat B”.

On to `Cc1ccc(C[C@H](NC(=O)C2OC2C(=O)NCc2ccccc2)C(=O)N[C@@H](Cc2ccc(O)cc2)C(N)=O)cc1` (stereo partly drawn) [Compound 2], for which the Target result is listed as “Cat B”.

For the compound `CC(C)C[C@H](NC(=O)[C@H]1OC1C(=O)NCc1ccccc1)C(=O)N[C@@H](Cc1ccc(O)cc1)C(N)=O` (stereo partly drawn) [Compound 21], the Target result is “Cat B”.

`CC(C)C[C@H](NC(=O)C1OC1C(=O)NCCc1ccc(-c2ccccc2)cc1)C(=O)N[C@@H](Cc1ccc(O)cc1)C(N)=O` (stereo partly drawn) [Compound 24]: the Target entry is on record as “Cat B”.

Regarding `CCOC(=O)C1OC1C(=O)N[C@@H](Cc1ccc(C)cc1)C(=O)N[C@@H](Cc1ccc(O)cc1)C(N)=O` (stereo partly drawn) [Compound 18], the Target result is listed as “Cat B”.

As to `CC(C)C[C@H](NC(=O)C1O[C@H]1C(=O)NCCCCCCO)C(=O)N[C@@H](Cc1ccc(O)cc1)C(N)=O` (stereo partly drawn) [Compound 53], the Target result was “Cat B”.

Regarding `CC(=O)NCCNC(=O)C1OC1C(=O)N[C@@H](CC(C)C)C(=O)N[C@@H](Cc1ccc(O)cc1)C(N)=O` (stereo partly drawn) [Compound 41], the Target entry is listed as “Cat B”.

Regarding `CC(C)C[C@H](NC(=O)C1OC1C(=O)N[C@@H](C)c1ccccc1)C(=O)N[C@@H](Cc1ccc(O)cc1)C(N)=O` (stereo partly drawn) [Compound 37], the Target result is on record as “Cat B”.

Take `CC(=O)NCCNC(=O)C1O[C@@H]1C(=O)N[C@@H](CC(C)C)C(=O)N[C@@H](Cc1ccc(O)cc1)C(N)=O` (stereo partly drawn) [Compound 20]: the Target entry was “Cat B”.

On to `CC(C)C[C@H](NC(=O)[C@H]1OC1C(=O)NCCN1CCCCC1)C(=O)N[C@@H](Cc1ccc(O)cc1)C(N)=O` (stereo partly drawn) [Compound 28], for which the Target entry is given as “Cat B”.

For the compound `Cc1ccc(C[C@H](NC(=O)C2OC2C(=O)NCCCCCCO)C(=O)N[C@@H](Cc2ccc(O)cc2)C(N)=O)cc1` (stereo partly drawn) [Compound 13], the Target result is on record as “Cat B”.

In the case of `CC(C)C[C@H](NC(=O)[C@H]1OC1C(=O)NCC(=O)O)C(=O)N[C@@H](Cc1ccc(O)cc1)C(N)=O` (stereo partly drawn) [Compound 35], the Target entry is given as “Cat B”.

For `CC(=O)NCCNC(=O)[C@H]1O[C@@H]1C(=O)N[C@@H](Cc1ccc(C)cc1)C(=O)N[C@@H](Cc1ccc(O)cc1)C(N)=O` [Compound 1], the Target result was “Cat B”.

Regarding `CCNC(=O)C1OC1C(=O)N[C@@H](Cc1ccc(C)cc1)C(=O)N[C@@H](Cc1ccc(O)cc1)C(N)=O` (stereo partly drawn) [Compound 14], the Target result was “Cat B”.

As to `CCC[C@H](NC(=O)[C@H]1O[C@@H]1C(=O)O)C(=O)NCc1cccc2ccccc12` [Compound 114], the Target entry is reported as “General”.

`CCC[C@H](NC(=O)C1O[C@@H]1C(=O)OCC)C(=O)NCCc1ccccn1` (stereo partly drawn) [Compound 123]: the Target result is recorded as “General”.

On to `CC(C)C[C@H](NC(=O)C1OC1C(=O)NCC(N)=O)C(=O)N[C@@H](Cc1ccc(O)cc1)C(N)=O` (stereo partly drawn) [Compound 34], for which the Target entry is “Cat B”.

For `CCOC(=O)[C@H]1O[C@@H]1C(=O)N[C@@H](Cc1ccc(C)cc1)C(=O)NCc1cccc2ccccc12` [Compound 122], the Target result is reported as “Cat Z”.

On to `CC(C)C[C@H](NC(=O)C1OC1C(=O)NCCCCCCO)C(=O)N[C@@H](Cc1ccc(O)cc1)C(N)=O` (stereo partly drawn) [Compound 32], for which the Target result is “Cat B”.

For `CC(C)C[C@H](NC(=O)C1O[C@H]1C(=O)NCCc1ccccn1)C(=O)N[C@@H](Cc1ccc(O)cc1)C(N)=O` (stereo partly drawn) [Compound 43], the Target result is “Cat B”.
